In the supplement of paper PMC11061612:

Columns and labels:
[1] = tested on: SNU-16 (Gastric Carcinoma); assay: Bliss excess, mean over the matrix (fraction); higher = more synergy
Method in brief: (§1)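 Cell lines grown in DMEM/F12 or RPMI with 10% FBS were plated in 1536-well plates and held 24 hours at 37°C, 5% CO2 before 72 hours of exposure to two-drug dose matrices, with DMSO typically at 0.2%. CellTiter-Glo 2.0 luminescence gave viability, which was converted to inhibition. Vehicle wells were set to 0 and blank wells to 1. Combination Emax is the second-highest inhibition in the matrix, and Bliss excess is the observed combination effect minus the expected EA + EB − EA·EB, where EA and EB are the single-agent effects.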

[2] = tested on: TGBC1TKB (Biliary Tract Carcinoma); assay: as above
Method in brief: as §1

[3] = tested on: SAS (Oral Cavity Carcinoma); assay: as above
Method in brief: as §1

[4] = tested on: HuCCT1 (Biliary Tract Carcinoma); assay: as above
Method in brief: as §1

[5] = tested on: NCI-H524 (Small Cell Lung Carcinoma); assay: as above
Method in brief: as §1

[6] = tested on: ESS-1 (Other Solid Carcinomas); assay: as above
Method in brief: as §1

MPP-89 (Mesothelioma) = assay: as above
Method in brief: as §1

[7] = tested on: TGBC1TKB (Biliary Tract Carcinoma); assay: combination Emax (second highest fraction inhibited in the dose matrix, 72 h); higher = more inhibition; extreme values may be limits of the assay
Method in brief: as §1

[8] = tested on: BE-13 (T-Lymphoblastic Leukemia); assay: as above
Method in brief: as §1

KS-1 (Glioblastoma) = assay: as above
Method in brief: as §1
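For Bliss excess, mean over the matrix in this document: after 72 h of two-drug dosing.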

Structure (SMILES) | Bliss excess [1] | Bliss excess [2] | Bliss excess [3] | Bliss excess [4] | Bliss excess [5] | Bliss excess [6] | Bliss excess (MPP-89 (Mesothelioma)) | combination Emax [7] | combination Emax [8] | combination Emax (KS-1 (Glioblastoma))
C=CCn1c(=O)c2cnc(Nc3ccc(N4CCN(C)CC4)cc3)nc2n1-c1cccc(C(C)(C)O)n1 [AZD1775] + Nc1ccn([C@@H]2O[C@H](CO)[C@@H](O)C2(F)F)c(=O)n1 [Gemcitabine] (first compound max 1 µM, partner max 0.3 µM) | -0.013 | -0.02 | 0.0585 | 0.0536 | 0.0443 | 0.0774 | 0.0505 | 0.454 | 1 | 0.5
CN(CCO)CC[C@H](CSc1ccccc1)Nc1ccc(S(=O)(=O)NC(=O)c2ccc(N3CCC([C@@H](O)c4ccccc4-c4ccc(Cl)cc4)CC3)cc2)cc1S(=O)(=O)C(F)(F)F [AZD4320] + CS(=O)(=O)CCNCc1ccc(-c2ccc3ncnc(Nc4ccc(OCc5cccc(F)c5)c(Cl)c4)c3c2)o1 [Lapatinib] (first compound max 1 µM, 7x7, partner max 10 µM) | 0.0399 | 0.0019 | 0.0214 | -0.0052 | 0.0798 | 0.0668 | 0.0479 | 0.58 | 1 | 0.475
Cc1c2c(nn1C)CSCc1cc(n(C)n1)CSc1cc(c3ccccc3c1)OCCCc1c(C(=O)O)n(C)c3c-2c(Cl)ccc13 [AZD5991] + CC(=O)O[C@H]1C(=O)[C@@]2(C)[C@H]([C@H](OC(=O)c3ccccc3)[C@]3(O)C[C@H](OC(=O)[C@H](O)[C@@H](NC(=O)c4ccccc4)c4ccccc4)C(C)=C1C3(C)C)[C@]1(OC(C)=O)CO[C@@H]1C[C@@H]2O [Paclitaxel] (first compound max 1 µM, 7x7, partner max 3 µM) | 0.0119 | -0.0892 | 0.0067 | -0.0164 | -0.0264 | 0.0341 | -0.0347 | 0.412 | 0.852 | 0.582
Cc1c2c(nn1C)CSCc1cc(n(C)n1)CSc1cc(c3ccccc3c1)OCCCc1c(C(=O)O)n(C)c3c-2c(Cl)ccc13 [AZD5991] + CS(=O)(=O)CCNCc1ccc(-c2ccc3ncnc(Nc4ccc(OCc5cccc(F)c5)c(Cl)c4)c3c2)o1 [Lapatinib] (first compound max 1 µM, 7x7, partner max 10 µM) | -0.0003 | -0.0463 | -0.0208 | 0.0065 | -0.0908 | 0.0292 | -0.0088 | – | 0.936 | 0.147
C[C@@H]1COCCN1c1cc(C2([S@](C)(=N)=O)CC2)nc(-c2ccnc3[nH]ccc23)n1 [AZD6738] + C1CC(C1)(C(=O)[O-])C(=O)[O-].N.N.[Pt+2] [Carboplatin] (first compound max 10 µM, 7x7, partner max 10 µM) | 0.0045 | -0.0375 | -0.0459 | -0.0477 | -0.0512 | 0.0196 | -0.035 | 0.302 | 0.737 | 0.431
C[C@@H]1COCCN1c1cc(C2([S@](C)(=N)=O)CC2)nc(-c2ccnc3[nH]ccc23)n1 [AZD6738] + Nc1ccn([C@@H]2O[C@H](CO)[C@@H](O)C2(F)F)c(=O)n1 [Gemcitabine] (first compound max 10 µM, 7x7, partner max 0.3 µM) | 0.0098 | 0.0524 | 0.0762 | 0.0144 | 0.0064 | 0.0734 | 0.0348 | 0.583 | 1 | –
C[C@@H](Nc1cc(F)cc(F)c1)c1cc(C(=O)N(C)C)cc2c(=O)cc(N3CCOCC3)oc12 [AZD8186] + C1CN(CCC1(C(=O)N[C@@H](CCO)C2=CC=C(C=C2)Cl)N)C3=NC=NC4=C3C=CN4 [AZD5363] (first compound max 10 µM, 7x7, partner max 10 µM) | -0.0549 | 0.0539 | -0.0226 | -0.0171 | -0.0342 | -0.0165 | -0.0635 | 0.559 | 0.16 | 0.458
C[C@@H](Oc1cc(-c2cnn(C3CCNCC3)c2)cnc1N)c1c(Cl)ccc(F)c1Cl [Crizotinib] + CC1=C(C(=CC=C1)Cl)NC(=O)C2=CN=C(S2)NC3=CC(=NC(=N3)C)N4CCN(CC4)CCO [Dasatinib] (first compound max 10 µM, 7x7, partner max 2 µM) | 0.0279 | 0.0435 | -0.0059 | -0.0274 | -0.0264 | 0.062 | 0.0389 | 0.707 | 0.943 | 0.848
C[C@@H](Oc1cc(-c2cnn(C3CCNCC3)c2)cnc1N)c1c(Cl)ccc(F)c1Cl [Crizotinib] + Cn1cnc2c(F)c(Nc3ccc(Br)cc3Cl)c(C(=O)NOCCO)cc21 [Selumetinib] (first compound max 10 µM, 7x7, partner max 10 µM) | -0.0073 | -0.0534 | -0.0073 | -0.0516 | -0.0449 | -0.0634 | -0.0078 | 0.147 | 0.974 | 0.646
CS(=O)(=O)CCNCc1ccc(-c2ccc3ncnc(Nc4ccc(OCc5cccc(F)c5)c(Cl)c4)c3c2)o1 [Lapatinib] + Cn1cnc2c(F)c(Nc3ccc(Br)cc3Cl)c(C(=O)NOCCO)cc21 [Selumetinib] (first compound max 10 µM, 7x7, partner max 10 µM) | -0.0169 | 0.034 | -0.049 | 0.0208 | -0.0534 | -0.0075 | -0.0065 | 0.288 | 0.887 | 0.342
O=C(c1cc(Cc2n[nH]c(=O)c3ccccc23)ccc1F)N1CCN(C(=O)C2CC2)CC1 [Olaparib] + CC1(C)CCC(CN2CCN(c3ccc(C(=O)NS(=O)(=O)c4ccc(NCC5CCOCC5)c([N+](=O)[O-])c4)c(Oc4cnc5[nH]ccc5c4)c3)CC2)=C(c2ccc(Cl)cc2)C1 [Venetoclax] (first compound max 10 µM, 7x7, partner max 1 µM) | 0.0258 | -0.0666 | -0.0168 | -0.0478 | -0.0173 | -0.0103 | -0.0605 | 0.108 | 0.315 | 0.0863
O=C(c1cc(Cc2n[nH]c(=O)c3ccccc23)ccc1F)N1CCN(C(=O)C2CC2)CC1 [Olaparib] + CN(CC[C@H](CSC1=CC=CC=C1)NC2=C(C=C(C=C2)S(=O)(=O)NC(=O)C3=CC=C(C=C3)N4CCC(CC4)[C@H](C5=CC=CC=C5C6=CC=C(C=C6)Cl)O)S(=O)(=O)C(F)(F)F)CCO [AZD4320] (first compound max 10 µM, 7x7, partner max 1 µM) | 0.0432 | -0.049 | -0.0318 | -0.0518 | 0.0085 | 0.0825 | -0.0662 | 0.366 | 0.983 | 0.2
O=C(c1cc(Cc2n[nH]c(=O)c3ccccc23)ccc1F)N1CCN(C(=O)C2CC2)CC1 [Olaparib] + COc1nnc2ccc(N3CCC(c4ccc(OCCN5CCN(C)C(=O)[C@H]5C)cc4)CC3)nn12 [AZD5153] (first compound max 10 µM, 7x7, partner max 1 µM) | -0.0066 | -0.0322 | -0.0771 | -0.0637 | -0.0532 | -0.0139 | -0.0489 | 0.24 | 0.648 | 0.582
O=C(c1cc(Cc2n[nH]c(=O)c3ccccc23)ccc1F)N1CCN(C(=O)C2CC2)CC1 [Olaparib] + Cc1c2c(nn1C)CSCc1cc(n(C)n1)CSc1cc(c3ccccc3c1)OCCCc1c(C(=O)O)n(C)c3c-2c(Cl)ccc13 [AZD5991] (first compound max 10 µM, 7x7, partner max 1 µM) | 0.0603 | -0.0334 | -0.0344 | -0.0367 | 0.0147 | -0.0255 | -0.0586 | 0.157 | 0.498 | 0.0895
Cc1nc(-c2cn3c(n2)-c2ccc(-c4cnn(C(C)(C)C(N)=O)c4)cc2OCC3)n(C(C)C)n1 [Taselisib] + O=C(Nc1ccc2[nH]nc(-c3ccncc3)c2c1)[C@@H]1CCN(CC(=O)N2CCN(c3ccc(-c4ncccn4)cc3)CC2)C1 [SCH772984] (first compound max 10 µM, 7x7, partner max 5 µM) | 0.123 | 0.0043 | 0.0999 | 0.072 | 0.0464 | 0.0682 | 0.0373 | 0.663 | 0.373 | 0.677
CC1(C)CCC(CN2CCN(c3ccc(C(=O)NS(=O)(=O)c4ccc(NCC5CCOCC5)c([N+](=O)[O-])c4)c(Oc4cnc5[nH]ccc5c4)c3)CC2)=C(c2ccc(Cl)cc2)C1 [Venetoclax] + CS(=O)(=O)CCNCc1ccc(-c2ccc3ncnc(Nc4ccc(OCc5cccc(F)c5)c(Cl)c4)c3c2)o1 [Lapatinib] (first compound max 1 µM, 7x7, partner max 10 µM) | 0.0168 | -0.0308 | -0.059 | -0.0803 | -0.0393 | 0.0298 | -0.0532 | 0.134 | 0.854 | 0.089
